Assay [1] concerns primary cultured cortical nerve. Nature of the assay: Intracellular signaling proteins in damaged neurons. It counts as cell-based, rat. The conditions noted are these: Aβ25-35 + PEP1. The procedure: A primary cultured cortical nerve was obtained from the cerebral cortex of the fetal rat on day 16 of the embryonic period. Briefly, the brain was rapidly removed from the rat, and placed in a petri dish containing cold phosphate-buffered physiological saline (HBSS). Single cells were isolated from the cerebral cortex, and added into a previously poly-L-lysine-coated Corning dish with a diameter of 100 mm, or a glass coverslip was placed in a 6- or 24-well plate. The cultured cells were cultured in DMEM (high glucose).
Two days after the cells were added, non-neuronal cells were removed through treatment of 5 μM cytosine arabinoside for 24 hours. Only the mature culture (7 days in the test tube) was used in this experiment. Approximately 79.7% of a group of neurons was obtained from the neurons of a primary cortex. […]

The subject of assay [2] is Tuj1. Description: Tuj1 expression in 3XTg-AD mice (western blotting, immunostaining). The format is in vivo. The conditions noted are these: hippocampus and whole brain; s.c. three times a week for two months; vs control and Donepezil, same amount. The procedure:
To test the efficacy of PEP1 on AD, AD transgenic mice (3XTg-AD) were purchased from Jackson Laboratory. Genetic characteristics of the transgenic mice are as follows: B6; 129-Psen1tm1Mpm Tg(APPSwe, tauP301L)1Lfa/Mmjax. […] One week after mice were confirmed as pregnant, new mice were delivered and weaned for 3 weeks. Two weeks later, mature mice were obtained.
During the preliminary breeding and the entire period of the experiment, a temperature was maintained at 23±2° C. and a relative humidity was maintained at 60±10%, and then the mice were raised under a 12-hour dark/light cycle. Experimental animals were divided into five groups, and each group included 10 animals. The divided experimental groups are as follows. […]
The PEP1, physiological saline, donepezil and scramble peptide were subcutaneously injected at each concentration three times a week for two months from the age of 12 months, and then two months after the injection, cognitive/memory behavior tests (passive avoidance test and Y maze test) were performed to examine a degree of improvement in cognitive function and memory function. After the brain was extracted to separate the hippocampus, the amounts of amyloid beta in the hippocampus and the whole brain, and the amounts of an amyloid beta oligomer and NFT generated by tau hyperphosphorylation were determined by western blotting and immunostaining. […]

The test system of assay [3] is NSCs. Description: Cell migration assay (QCM-24-well kit). The format is cell-based, rat. To be noted: 20 μM Aβ25-35 + PEP1 1, 10, 50 μM. The method, then:
A cell migration assay was carried out using a QCM-24-well cell migration kit. Briefly, 20 μM Aβ25-30 and each concentration of PEP1 (1, 10 or 50 μM) were added to a lower chamber, and 3×10^5 NSCs were cultured in an upper chamber at 37° C. for 24 hours. NSCs migrated toward the membrane, and after staining to observe the number of migrating cells, absorbance was measured at 560 nm.

Regarding “EARPALLTSRLRFIPK (homo sapiens) [PEP1, hTERT-derived peptide consisting of 16 amino acids, telomerase location [611-626]]”, in assay [1], the apoptosis-associated proteins entry is listed as “a low amount” and the proliferation-associated proteins result is given as “a large amount”. The Tuj1 entry in assay [2] is listed as “increased”. Besides, the “migration ability of NSCs” value in assay [3] is recorded as “effectively restored migration”.

The values are drawn from patent US20180318383A1, “PEPTIDE HAVING NEURONAL LOSS PREVENTION AND REGENERATION EFFECTS, AND COMPOSITION CONTAINING SAME” (GEMVAX & KAEL CO., LTD., priority 2015, published 2018).
